Experimental data taken from ChEMBL document CHEMBL1147463, “Synthesis and anticancer activity of side chain analogs of the crambescidin alkaloids” (2004).

What was measured:
Format in all cases: functional
[1] = Human tumor selectivity was measured as zone unit differential between (H125) lung small cell carcinoma and (CEM) lymphocytic leukemia in disk diffusion soft agar colony formation assay at a concentration of 75 ug/disk
[2] = Murine tumor cell selectivity as zone unit differential between (C38) colon adenocarcinoma and ([…]) murine cell line in disk diffusion soft agar colony formation assay at 75 ug/disk.
[3] = Murine tumor cell selectivity as zone unit differential between ([…]) murine cell line and (CFU) normal bone marrow in disk diffusion soft agar colony formation assay at 75 ug/disk.
[4] = Murine tumor cell selectivity was measured as zone unit differential between (C38) colon adenocarcinoma and (CFU) normal bone marrow in disk diffusion soft agar colony formation assay at a concentration of 75 ug/disk
[5] = Murine tumor cell selectivity was measured as zone unit differential between ([…]) murine cell line and (CFU) normal bone marrow in disk diffusion soft agar colony formation assay at a concentration of 5 ug/disk
[6] = Human tumor selectivity was measured as zone unit differential between (H116) colon tumor and (CEM) lymphocytic leukemia in disk diffusion soft agar colony formation assay at a concentration of 5 ug/disk
[7] = Murine tumor cell selectivity was measured as zone unit differential between (C38) colon adenocarcinoma and (CFU) normal bone marrow in disk diffusion soft agar colony formation assay at a concentration of 5 ug/disk
[8] = Human tumor selectivity was measured as zone unit differential between (H125) lung small cell carcinoma and (CEM) lymphocytic leukemia in disk diffusion soft agar colony formation assay at a concentration of 5 ug/disk
[9] = Murine tumor cell selectivity was measured as zone unit differential between (C38) colon adenocarcinoma and ([…]) murine cell line in disk diffusion soft agar colony formation assay at a concentration of 5 ug/disk

| Structure (SMILES) | Selectivity [1] | Selectivity [2] | Selectivity [3] | Selectivity [4] | Selectivity [5] | Selectivity [6] | Selectivity [7] | Selectivity [8] | Selectivity [9] |
| --- | --- | --- | --- | --- | --- | --- | --- | --- | --- |
| CC[C@H]1C=CCC[C@@]2(C[C@@H]3CC[C@@H]4[C@H](C(=O)OCCCCCCCCCCCC(=O)N(CCCN)C[C@@H](O)CCN)[C@]5(CCC[C@@H](C)O5)NC(=[N+]34)N2)O1.Cl.Cl.[Cl-] | 100 | 50 | 50 | 100 |  |  |  |  |  |
| CC[C@H]1C=CCC[C@@]2(C[C@@H]3CC[C@@H]4[C@H](C(=O)OCCCCCCCC(=O)N(CCCN)C[C@@H](O)CCN)[C@]5(CCC[C@@H](C)O5)NC(=[N+]34)N2)O1.Cl.Cl.[Cl-] | -50 | -200 | 300 | 100 |  |  |  |  |  |
| CC[C@H]1C=CCC[C@@]2(C[C@@H]3CC[C@@H]4[C@H](C(=O)OCCCCCCCCCCCCCCC(=O)N(CCCN)C[C@@H](O)CCN)[C@]5(CCC[C@@H](C)O5)NC(=[N+]34)N2)O1.Cl.Cl.[Cl-] | 400 | 50 | 100 | 150 |  |  |  |  |  |
| CC[C@H]1C=CCC[C@@]2(C[C@@H]3CC[C@H]4[C@@H](C(=O)OCCCCCCCCCCCCCCCC(=O)N(CCCN)C[C@@H](O)CCN)[C@@]5(CCC[C@@H](C)O5)NC(=[N+]34)N2)O1.Cl.Cl.[Cl-] | 100 | -50 | 50 | 0 |  |  |  |  |  |
| CC[C@H]1C=CCC[C@@]2(C[C@@H]3CC[C@@H]4[C@H](C(=O)OCCCCCCCCCC(=O)O)[C@]5(CCC[C@@H](C)O5)NC(=[N+]34)N2)O1.[Cl-] [GUANIDINO ACID] | 50 | 300 | -200 | 100 |  |  |  |  |  |
| CC[C@H]1C=CCC[C@@]2(C[C@@H]3CC[C@H]4[C@@H](C(=O)OCCCCCCCCCCCCCCCC(=O)O)[C@@]5(CCC[C@@H](C)O5)NC(=[N+]34)N2)O1.[Cl-] | 150 | 100 | -50 | 50 |  |  |  |  |  |
| CC[C@H]1C=CCC[C@@]2(C[C@@H]3CC[C@@H]4[C@H](C(=O)OCCC(C)C)[C@]5(CCC[C@@H](C)O5)NC(=[N+]34)N2)O1.[Cl-] |  |  |  |  | -50 | 50 | 0 | 150 | 50 |
| CC[C@H]1C=CCC[C@@]2(C[C@@H]3CC[C@@H]4[C@H](C(=O)OCCCCCCCCCCCC(=O)O)[C@]5(CCC[C@@H](C)O5)NC(=[N+]34)N2)O1.[Cl-] [GUANIDINO ACID] | 200 | 200 | 50 | 250 |  |  |  |  |  |
| CC[C@H]1C=CCC[C@@]2(C[C@@H]3CC[C@@H]4[C@H](C(=O)OCCCCCCCCCCCCCCCC(=O)O)[C@]5(CCC[C@@H](C)O5)NC(=[N+]34)N2)O1.[Cl-] [CRAMBESCIDIN 657] | 100 | 150 | 50 | 200 |  |  |  |  |  |
| CC[C@H]1C=CCC[C@@]2(C[C@@H]3CC[C@@H]4[C@H](C(=O)OCCCCCC(=O)[O-])[C@]5(CCC[C@@H](C)O5)NC(=[N+]34)N2)O1.Cl [GUANIDINO ACID] | 150 | -200 | 200 | 0 |  |  |  |  |  |
| CC[C@H]1C=CCC[C@@]2(C[C@@H]3CC[C@@H]4[C@H](C(=O)OCCCCCCCC(=O)O)[C@]5(CCC[C@@H](C)O5)NC(=[N+]34)N2)O1.[Cl-] [GUANIDINO ACID] | -50 | 100 | 100 | 200 |  |  |  |  |  |
| CC[C@H]1C=CCC[C@@]2(C[C@@H]3CC[C@@H]4[C@H](C(=O)OCCCCCC(=O)N(CCCN)C[C@@H](O)CCN)[C@]5(CCC[C@@H](C)O5)NC(=[N+]34)N2)O1.Cl.Cl.[Cl-] | -50 | -300 | 300 | 0 |  |  |  |  |  |
| CC[C@H]1C=CCC[C@@]2(C[C@@H]3CC[C@@H]4[C@@H](C(=O)OC/C=C/c5ccccc5)[C@]5(CCC[C@@H](C)O5)NC(=[N+]34)N2)O1.[Cl-] |  |  |  |  | 50 | 100 | 100 | 200 | 50 |
| CC[C@H]1C=CCC[C@@]2(C[C@@H]3CC[C@@H]4[C@H](C(=O)OCCCCCCCCCCCCCCCCCC(=O)N(CCCN)C[C@@H](O)CCN)[C@]5(CCC[C@@H](C)O5)NC(=[N+]34)N2)O1.Cl.Cl.[Cl-] | 150 | 50 | 100 | 150 |  |  |  |  |  |
| CC[C@H]1C=CCC[C@@]2(C[C@@H]3CC[C@@H]4[C@H](C(=O)OCCCCCCCCCC(=O)N(CCCN)C[C@@H](O)CCN)[C@]5(CCC[C@@H](C)O5)NC(=[N+]34)N2)O1.Cl.Cl.[Cl-] | -50 | 0 | 300 | 100 |  |  |  |  |  |
| CC[C@H]1C=CCC[C@@]2(C[C@@H]3CC[C@@H]4[C@H](C(=O)OCCCCCCCCCCCCCCC(=O)[O-])[C@]5(CCC[C@@H](C)O5)NC(=[N+]34)N2)O1.Cl [GUANIDINO ACID] | 100 | 200 | -100 | 100 |  |  |  |  |  |
| CC[C@H]1C=CCC[C@@]2(C[C@@H]3CC[C@@H]4[C@H](C(=O)OCCCCCCCCCCCCCCCCCC(=O)O)[C@]5(CCC[C@@H](C)O5)NC(=[N+]34)N2)O1.[Cl-] [GUANIDINO ACID] | 150 | 100 | 0 | 100 |  |  |  |  |  |
| CC[C@H]1C=CCC[C@@]2(C[C@@H]3CC[C@@H]4[C@@H](C(=O)[O-])[C@]5(CCC[C@@H](C)O5)NC(=[N+]34)N2)O1.Cl | 50 | -100 | 300 | 200 |  |  |  |  |  |
| CC[C@H]1C=CCC[C@@]2(C[C@@H]3CC[C@H]4[C@H](C(=O)OCCCCCCCCCCCCCCCC(=O)N(CCCN)C[C@@H](O)CCN)[C@@]5(CCC[C@@H](C)O5)NC(=[N+]34)N2)O1.Cl.Cl.[Cl-] | 50 | 0 | 50 | 50 |  |  |  |  |  |
| CC[C@H]1C=CCC[C@@]2(C[C@@H]3CC[C@@H]4[C@H](C(=O)OCCCCCCCCCCCCCCCC(=O)N(CCCN)C[C@@H](O)CCN)[C@]5(CCC[C@@H](C)O5)NC(=N2)N34)O1.Cl.Cl.Cl [CRAMBESCIDIN 800 TRIHYDROCHLORIDE] | 50 | -200 | 150 | -50 |  |  |  |  |  |
| CC[C@H]1C=CCC[C@@]2(C[C@@H]3CC[C@@H]4[C@H](C(=O)OCc5ccccc5)[C@]5(CCC[C@@H](C)O5)NC(=[N+]34)N2)O1.[Cl-] |  |  |  |  | 50 | 50 | 100 | 150 | 50 |
| CC[C@H]1C=CCC[C@@]2(C[C@@H]3CC[C@@H]4[C@H](C(=O)OCC5CC5)[C@]5(CCC[C@@H](C)O5)NC(=[N+]34)N2)O1.[Cl-] |  |  |  |  | 100 | 100 | 300 | 150 | 200 |
| CCOC(=O)[C@H]1[C@H]2CC[C@H]3C[C@@]4(CCC=C[C@H](CC)O4)NC(=[N+]32)N[C@@]12CCC[C@@H](C)O2.[Cl-] |  |  |  |  | 200 | 0 | 150 | 100 | -50 |
